From patent publication US20250345356A1, “TIRAPAZAMINE COMPOSITIONS AND METHODS” (priority 2024, published 2025)
Where “and” joins values, the source holds several entries; their conditions need not be identical. Identical values can stand only once. Like-named read-outs stand apart in the source and are kept apart here.

What was measured:
HCC [1] = conditions: cited from earlier work
HCC [2] = conditions: cited from earlier work; remark: listed apart in the source
advanced NSCLC = conditions: cited from earlier work
[3] = Activation energy of degradation from stability studies; type: physicochemical; conditions: formulation without HP-beta-CD, long-term stability results
Method: Activation energy (Ea) is the least possible energy required to start a chemical reaction. Molecules need some kinetic energy or velocity to collide with other molecules to start a reaction. No reaction will take place if the collision doesn't happen, or if the molecules don't have enough kinetic energy. The energy needed to initiate the reaction is known as Activation energy.
The activation energy (Ea) of a reaction is measured in joules (J), kilojoules per mole (kJ/mol) or kilocalories per mole (kcal/mol)
The Activation Energy Formula is as follows: […]
Where A is a constant, k is the rate constant, Ea is the activation energy of degradation in kcal/mol, R is the universal gast constant (1.98 calKmole) and I is the absolute temperature (° K).
In the formulation without HP-beta-CD, Ea of TPZ is calculated as 35 kcal/mole based on the long-term stability results. For the HP-beta-CD new formulation, Ea of the complex is calculated at 44 kcal/mole using a new formulation methodology called “Accelerated Stability Assessment Program (ASAP)” that can be executed in a few weeks with a few storage conditions and temperature ranging from 40° C. to 70° C. inclusive. The higher the activation energy, the more kinetically stable the complex is.

[4] = mice, intravenous administration; cited from earlier work
[5] = tested on: unresectable intermediate stage HCC; conditions: cited from earlier work
[6] = cited from earlier work
[7] = cited from earlier work; remark: listed apart in the source

Nc1n[n+]([O-])c2ccccc2[n+]1[O-] [tirapazamine, 3-amino-1,2,4-benotriazine-1,4-di-N-oxide]
CR or partial response (PR), objective response rate (ORR) (HCC [1]; 17 patients): 64.7%
patients who achieved CR as the best target tumor lesion response (HCC [1]; 17 patients): 47.1%
median Time to Progression (HCC [1]; mRECIST criteria): not reached
necrosis in the HCC within the territory of HAL (HCC [2]; Day 1 post-treatment, tirapazamine 3 mg/kg, doxorubicin 10 mg/kg, transient left HAL): more than 99%
necrosis of HCCs in the territory of the left HAL (HCC [2]; Day 7, 3 mg/kg with left HAL, H&E): 90-99%
tumor necrosis, individual mice (HCC [2]; Day 7, three mice, 3 mg/kg with left HAL, 3 mg/kg): 90% and 99% (2×)
necrosis in the tumor-free part of the left lobe of the liver (HCC [2]; Day 7, with left HAL): no evidence of necrosis
removed from treatment as a result of toxicity (advanced NSCLC; arm 1 (with tirapazamine 260-330 mg/m^2) vs arm 2): 26%
patients who developed ≥grade 3 febrile neutropenia (advanced NSCLC; arm 1 vs arm 2): Twenty
survival compared with paclitaxel and carboplatin alone (advanced NSCLC; tirapazamine added to paclitaxel and carboplatin): does not result in improved survival
activation energy of degradation (Ea) [3]: 35 kcal/mol
LD10 [4]: 294 mg/kg
LD50 [4]: 303 mg/kg
median duration of target lesion response ([5]; 15 patients who achieved CR by mRECIST): not reached
median duration of target lesion response ([5]; 21 patients who achieved CR or PR): not reached
treatment emergent AE grade 3 or higher: ALT increased ([5]; 27 patients): 11.1%
treatment emergent AE grade 3 or higher: AST increased ([5]; 27 patients): 14.8%
treatment emergent AE grade 3 or higher: hypertension ([5]; 27 patients): 25.9%
treatment-related AE: ALT increased ([5]; 27 patients): 7.4%
treatment-related AE: AST increased ([5]; 27 patients): 7.4%
treatment-related AE: bradycardia ([5]; 27 patients): 7.4%
treatment-related AE: fatigue ([5]; 27 patients): 7.4%
treatment-related AE: hypertension ([5]; 27 patients): 11.1%
CR rate by lesions ([5]; 46 target lesions): 65.2%
ORR (CR+PR) by lesions ([5]; 46 target lesions): 78.3%
local recurrence in the embolized territory ([5]; CR patients): 13.3%
local recurrence in the embolized territory ([5]; CR+PR patients): 28.6%
dose-limiting toxicity (DLT) ([5]; all cohorts, with TAE): no dose-limiting toxicity
patients who achieved CR in target lesions ([5]; mRECIST, 25 evaluable patients): 60.0%
patients who achieved CR+PR ([5]; mRECIST, 25 evaluable patients): 84.0%
Complete Response (CR) rate ([5]; two phase I studies, tirapazamine with TAE): 50-60%
MTD of tirapazamine in combination with TAE ([5]; up to 20 mg/m^2 I.A.): not established
tumor responses ([6]; 36-450 mg/m^2 i.v.): no tumor responses were seen
AUC of tirapazamine at which ototoxicity was not observed ([6]; human, in vivo, 330 mg/m2): ≤ 1252 µg·min/mL
Maximally Tolerated Dose (MTD) ([6]; human, in vivo, iv): 390 mg/m^2
dose-limiting toxicities ([6]; human, in vivo, iv): reversible deafness and tinnitus
duration of cramps ([6]; human, in vivo, iv): 1 to 14 days
mean Vdss ([6]; human, in vivo, iv): 39 ± 12.5 L
mean clearance (±SD) ([6]; human, in vivo, iv): 624.2 ± 157 mL/min
onset of muscle cramps after the start of infusion ([6]; human, in vivo, iv): 2.4 to 24 h
increase in AUC(0-inf) ([6]; human, in vivo): ~19 fold
necrosis of the left lobe of the liver (histopathology) ([7]; 3 mg/kg and 6 mg/kg i.v. with transient left HAL, Day 1): 1%
survival after 1 and 7 days ([7]; 3 mg/kg or 6 mg/kg with left HAL): survived
serum alanine transaminase (ALT) level ([7]; Day 1, dose-dependent): elevated on Day 1
potentially safe doses combined with transient left HAL ([7]; i.v. infusion): ≤ 6 mg/kg
